Columns and labels:
[1] = molecular target: T1, Cytochrome P450 1B1 (Homo sapiens, UniProt Q16678); test: Inhibition of human CYP1B1 expressed in supersomes using ethoxyresorufin as substrate after 20 mins in presence of NADP by Dixon plot analysis
T1 sequence (Q16678 whole entry): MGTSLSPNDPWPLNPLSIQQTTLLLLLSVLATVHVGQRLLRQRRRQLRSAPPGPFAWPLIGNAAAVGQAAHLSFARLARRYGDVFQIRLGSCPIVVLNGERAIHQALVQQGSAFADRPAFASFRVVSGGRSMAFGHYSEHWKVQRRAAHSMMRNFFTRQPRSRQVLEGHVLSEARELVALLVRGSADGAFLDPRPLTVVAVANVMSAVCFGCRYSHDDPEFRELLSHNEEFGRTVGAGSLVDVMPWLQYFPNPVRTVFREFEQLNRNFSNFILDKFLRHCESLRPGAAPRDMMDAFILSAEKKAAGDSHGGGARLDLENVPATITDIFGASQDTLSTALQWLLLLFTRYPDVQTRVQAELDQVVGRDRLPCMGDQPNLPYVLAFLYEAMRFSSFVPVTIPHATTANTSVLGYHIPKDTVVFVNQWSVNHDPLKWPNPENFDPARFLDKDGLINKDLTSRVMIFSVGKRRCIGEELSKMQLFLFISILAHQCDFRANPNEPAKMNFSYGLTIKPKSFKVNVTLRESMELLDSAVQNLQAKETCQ

[2] = molecular target: T1, Cytochrome P450 1B1; test: Inhibition of CYP1B1 (unknown origin) expressed in Escherichia coli DH5alpha coexpressing human NADPH-P450 reductase using 7-Ethoxyresorufin as substrate up to 6 mins in presence of NADP+ by spectrofluorometric analysis
[3] = molecular target: T2, Cytochrome P450 1A1 (Homo sapiens, UniProt P04798); test: Inhibition of CYP1A1 (unknown origin) expressed in Escherichia coli DH5alpha coexpressing human NADPH-P450 reductase using 7-Ethoxyresorufin as substrate up to 6 mins in presence of NADP+ by spectrofluorometric analysis
T2 sequence (P04798 whole entry): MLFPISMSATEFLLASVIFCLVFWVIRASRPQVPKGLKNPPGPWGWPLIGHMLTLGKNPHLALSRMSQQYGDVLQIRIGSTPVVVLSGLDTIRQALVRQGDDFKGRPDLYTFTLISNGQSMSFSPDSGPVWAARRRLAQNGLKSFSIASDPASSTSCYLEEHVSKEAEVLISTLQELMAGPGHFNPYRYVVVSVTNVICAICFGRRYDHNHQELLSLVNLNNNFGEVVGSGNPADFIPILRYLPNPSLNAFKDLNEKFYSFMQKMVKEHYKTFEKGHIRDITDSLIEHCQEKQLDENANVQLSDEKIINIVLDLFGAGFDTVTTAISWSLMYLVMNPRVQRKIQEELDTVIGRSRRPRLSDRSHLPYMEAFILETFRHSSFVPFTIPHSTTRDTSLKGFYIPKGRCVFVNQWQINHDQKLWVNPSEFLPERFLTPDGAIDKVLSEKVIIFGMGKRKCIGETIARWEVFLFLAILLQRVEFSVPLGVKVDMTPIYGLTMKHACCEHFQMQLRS

[4] = molecular target: T3, Cytochrome P450 1A2 (Homo sapiens, UniProt P05177); test: ChEBML_1684878
T3 sequence (P05177 whole entry): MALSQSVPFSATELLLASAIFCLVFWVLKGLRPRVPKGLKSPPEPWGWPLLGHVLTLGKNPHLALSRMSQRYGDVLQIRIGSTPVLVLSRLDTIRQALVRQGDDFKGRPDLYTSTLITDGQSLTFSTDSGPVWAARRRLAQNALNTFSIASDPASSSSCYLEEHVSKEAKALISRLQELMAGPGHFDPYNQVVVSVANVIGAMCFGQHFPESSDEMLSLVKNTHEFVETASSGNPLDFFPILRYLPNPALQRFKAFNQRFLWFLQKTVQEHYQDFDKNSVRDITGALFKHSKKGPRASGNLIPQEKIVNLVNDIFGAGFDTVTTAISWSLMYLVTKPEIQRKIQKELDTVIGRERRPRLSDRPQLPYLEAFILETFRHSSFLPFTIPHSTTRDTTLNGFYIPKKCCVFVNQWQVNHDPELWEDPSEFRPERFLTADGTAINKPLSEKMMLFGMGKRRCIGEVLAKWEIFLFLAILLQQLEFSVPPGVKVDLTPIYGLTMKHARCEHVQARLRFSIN
Experimental: Competitive inhibition of human liver microsomes CYP1A2 expressed in supersomes coexpressing NADPH-CYP reductase using 7-Ethoxyresorufin as substrate measured every 5 mins for 30 mins in presence of NADPH by fluorescence assay

SMILES	Ki [1] [nM]	IC50 [2] [nM]	IC50 [3] [nM]	IC50 [4] [nM]
C[C@]12CC[C@H]3[C@@H](CCC4=CC(=O)CC[C@@]43C)[C@@H]1CC[C@@H]2O [Testosterone, 1]	412000			
N#C[Se]Cc1cccc(C[Se]C#N)c1		130	100	200
